ChEMBL document CHEMBL1201862, “PubChem BioAssay data set” (2004)
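A five-concentration, 48-hour dose response in 96-well plates underlies each endpoint, interpolated linearly between surrounding concentrations. GI50 marks 50% less growth.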 Calls of active or inactive are those of the source. No stated cut-off is given here; in the data, active = GI50 up to about 1.1 µM and inactive = higher.

Key:
Test in all cases: DTP human tumour cell line panel, 48 h
IGROV-1 = test system: IGROV-1
OVCAR-4 = test system: OVCAR-4
HCT-116 = test system: HCT-116
SK-OV-3 = test system: SK-OV-3
BT-549 = test system: BT-549
Malme-3M = test system: Malme-3M
NCI-H23 = test system: NCI-H23
MDA-MB-231 = test system: MDA-MB-231
NCI-H460 = test system: NCI-H460
A549 = test system: A549
KM12 = test system: KM12
T47D = test system: T47D
SNB-75 = test system: SNB-75
OVCAR-8 = test system: OVCAR-8
SF-295 = test system: SF-295
SR = test system: SR
786-0 = test system: 786-0
HOP-62 = test system: HOP-62
COLO 205 = test system: COLO 205
HCC 2998 = test system: HCC 2998
SK-MEL-5 = test system: SK-MEL-5
RPMI-8226 = test system: RPMI-8226
HT-29 = test system: HT-29
MOLT-4 = test system: MOLT-4
NCI-H226 = test system: NCI-H226
Hs-578T = test system: Hs-578T
SW-620 = test system: SW-620
K562 = test system: K562
HOP-92 = test system: HOP-92
SNB-19 = test system: SNB-19
DU-145 = test system: DU-145
PC-3 = test system: PC-3
UO-31 = test system: UO-31
MCF7 = test system: MCF7
MDA-N = test system: MDA-N
SF-539 = test system: SF-539
UACC-62 = test system: UACC-62
TK-10 = test system: TK-10
M14 = test system: M14
OVCAR-3 = test system: OVCAR-3
OVCAR-5 = test system: OVCAR-5
CAKI-1 = test system: CAKI-1
SN12C = test system: SN12C
EKVX = test system: EKVX
ACHN = test system: ACHN
SK-MEL-2 = test system: SK-MEL-2
MDA-MB-435 = test system: MDA-MB-435
SF-268 = test system: SF-268
HCT-15 = test system: HCT-15
LOX IMVI = test system: LOX IMVI
U-251 = test system: U-251
A498 = test system: A498
NCI-H522 = test system: NCI-H522
NCI/ADR-RES = test system: NCI/ADR-RES
CCRF-CEM = test system: CCRF-CEM
UACC-257 = test system: UACC-257
HL-60 = test system: HL-60
SK-MEL-28 = test system: SK-MEL-28
RXF 393 = test system: RXF 393

## CC(=O)N1C(C(=O)NNc2ccccc2)CSC1c1ccccc1 (configuration not stated)
IGROV-1
  GI50: 36.6 µM (inactive)
OVCAR-4
  GI50: > 100 µM (inactive)
HCT-116
  GI50: > 100 µM (inactive)
SK-OV-3
  GI50: > 100 µM (inactive)
BT-549
  GI50: > 100 µM (inactive)
Malme-3M
  GI50: > 100 µM (inactive)
NCI-H23
  GI50: > 100 µM (inactive)
MDA-MB-231
  GI50: > 100 µM (inactive)
NCI-H460
  GI50: > 100 µM (inactive)
A549
  GI50: 71 µM (inactive)
KM12
  GI50: 71.3 µM (inactive)
T47D
  GI50: 69.7 µM (inactive)
SNB-75
  GI50: > 100 µM (inactive)
OVCAR-8
  GI50: > 100 µM (inactive)
SF-295
  GI50: > 100 µM (inactive)
SR
  GI50: > 100 µM (inactive)
786-0
  GI50: > 100 µM (inactive)
HOP-62
  GI50: > 100 µM (inactive)
COLO 205
  GI50: 64.9 µM (inactive)
HCC 2998
  GI50: 23 µM (inactive)
SK-MEL-5
  GI50: > 100 µM (inactive)
RPMI-8226
  GI50: 37.8 µM (inactive)
HT-29
  GI50: > 100 µM (inactive)
MOLT-4
  GI50: 4 µM (inactive)
NCI-H226
  GI50: > 100 µM (inactive)
Hs-578T
  GI50: > 100 µM (inactive)
SW-620
  GI50: > 100 µM (inactive)
K562
  GI50: 3.42 µM (inactive)
HOP-92
  GI50: > 100 µM (inactive)
SNB-19
  GI50: > 100 µM (inactive)
DU-145
  GI50: > 100 µM (inactive)
PC-3
  GI50: 5.3 µM (inactive)
UO-31
  GI50: 70.8 µM (inactive)
MCF7
  GI50: > 100 µM (inactive)
MDA-N
  GI50: > 100 µM (inactive)
SF-539
  GI50: 62.8 µM (inactive)
UACC-62
  GI50: 1.39 µM (inactive)
TK-10
  GI50: > 100 µM (inactive)
M14
  GI50: 16.7 µM (inactive)
OVCAR-3
  GI50: 58.2 µM (inactive)
OVCAR-5
  GI50: > 100 µM (inactive)
CAKI-1
  GI50: > 100 µM (inactive)
SN12C
  GI50: > 100 µM (inactive)
EKVX
  GI50: > 100 µM (inactive)
ACHN
  GI50: 4.47 µM (inactive)
SK-MEL-2
  GI50: > 100 µM (inactive)
MDA-MB-435
  GI50: 16.7 µM (inactive)
SF-268
  GI50: > 100 µM (inactive)
HCT-15
  GI50: 1.56 µM
LOX IMVI
  GI50: 3.16 µM (inactive)
U-251
  GI50: > 100 µM (inactive)
A498
  GI50: > 100 µM (inactive)
NCI-H522
  GI50: 0.471 µM (active)
NCI/ADR-RES
  GI50: > 100 µM (inactive)
CCRF-CEM
  GI50: 77.3 µM (inactive)
UACC-257
  GI50: > 100 µM (inactive)

## O=C(CC(C(=O)c1cccs1)c1ccsc1)c1ccsc1 (configuration not stated)
IGROV-1
  GI50: 54.1 µM (inactive)
OVCAR-4
  GI50: 27.4 µM (inactive)
HCT-116
  GI50: 27.4 µM (inactive)
SK-OV-3
  GI50: 32.1 µM (inactive)
BT-549
  GI50: 28.3 µM (inactive)
Malme-3M
  GI50: 78.5 µM (inactive)
NCI-H23
  GI50: 53 µM (inactive)
MDA-MB-231
  GI50: 30 µM (inactive)
NCI-H460
  GI50: 23 µM (inactive)
A549
  GI50: 45.8 µM (inactive)
KM12
  GI50: 42.9 µM (inactive)
T47D
  GI50: 30.6 µM (inactive)
SNB-75
  GI50: 25.6 µM (inactive)
OVCAR-8
  GI50: 39.4 µM (inactive)
SF-295
  GI50: 24.6 µM (inactive)
SR
  GI50: 32.6 µM (inactive)
HL-60
  GI50: 40.1 µM (inactive)
786-0
  GI50: 46.2 µM (inactive)
HOP-62
  GI50: 56.9 µM (inactive)
COLO 205
  GI50: 18.2 µM (inactive)
SK-MEL-28
  GI50: 50.5 µM (inactive)
HCC 2998
  GI50: 34.1 µM (inactive)
SK-MEL-5
  GI50: 16.1 µM (inactive)
RPMI-8226
  GI50: 27.1 µM (inactive)
HT-29
  GI50: 36.6 µM (inactive)
MOLT-4
  GI50: 21 µM (inactive)
Hs-578T
  GI50: 20.3 µM (inactive)
SW-620
  GI50: 29.7 µM (inactive)
K562
  GI50: 27.4 µM (inactive)
HOP-92
  GI50: 29.2 µM (inactive)
SNB-19
  GI50: 50.6 µM (inactive)
DU-145
  GI50: 44.8 µM (inactive)
PC-3
  GI50: 29 µM (inactive)
UO-31
  GI50: 31.4 µM (inactive)
MCF7
  GI50: 32.5 µM (inactive)
MDA-N
  GI50: > 10 µM (inactive)
SF-539
  GI50: 27.5 µM (inactive)
UACC-62
  GI50: 14 µM (inactive)
TK-10
  GI50: > 100 µM (inactive)
M14
  GI50: 16.9 µM (inactive)
OVCAR-3
  GI50: 40.2 µM (inactive)
OVCAR-5
  GI50: > 100 µM (inactive)
SN12C
  GI50: 52 µM (inactive)
EKVX
  GI50: 38 µM (inactive)
ACHN
  GI50: 58.2 µM (inactive)
MDA-MB-435
  GI50: 20.3 µM (inactive)
SF-268
  GI50: 51.6 µM (inactive)
HCT-15
  GI50: 42.1 µM
LOX IMVI
  GI50: 22.8 µM (inactive)
U-251
  GI50: 46.3 µM (inactive)
A498
  GI50: 11.4 µM (inactive)
NCI-H522
  GI50: 20.4 µM (inactive)
NCI/ADR-RES
  GI50: 24.8 µM (inactive)
CCRF-CEM
  GI50: 29 µM (inactive)
RXF 393
  GI50: 25.6 µM (inactive)
UACC-257
  GI50: 70.5 µM (inactive)
